Publication PMC7614687, “Modulation of the substrate specificity of the kinase PDK1 by distinct conformations of the full-length protein*” (Science signaling, 2023)

Molecular target: T1, SNAP-PDK1 (Homo sapiens, UniProt O15530)
T1 construct: SNAP-PDK1_50-556 (15 μM, in buffer Tris-HCl 50 mM pH 7.4); His (N); made in house; host or cells: insect cells
T1 sequence (O15530 50-556): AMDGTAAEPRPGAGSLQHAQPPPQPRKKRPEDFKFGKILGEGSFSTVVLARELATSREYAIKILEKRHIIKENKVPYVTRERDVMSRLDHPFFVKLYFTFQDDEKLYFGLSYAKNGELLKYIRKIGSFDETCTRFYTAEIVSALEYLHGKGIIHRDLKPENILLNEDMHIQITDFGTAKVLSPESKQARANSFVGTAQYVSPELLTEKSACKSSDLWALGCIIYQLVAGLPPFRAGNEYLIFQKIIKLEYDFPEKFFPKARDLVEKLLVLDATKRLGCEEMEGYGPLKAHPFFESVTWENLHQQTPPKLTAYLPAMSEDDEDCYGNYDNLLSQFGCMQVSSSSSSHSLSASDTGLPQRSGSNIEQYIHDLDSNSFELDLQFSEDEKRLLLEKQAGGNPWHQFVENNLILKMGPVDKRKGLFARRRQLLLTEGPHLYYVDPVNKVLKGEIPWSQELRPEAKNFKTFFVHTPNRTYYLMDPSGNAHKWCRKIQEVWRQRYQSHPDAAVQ
Assay: STORM-based single particle fluorescence of PDK1 monomers and dimers
Conditions: 15 μM HYG8
Description: SNAP-PDK1_50-556 (15 μM, in buffer Tris-HCl 50 mM pH 7.4, 200 mM NaCl, 200 mM imidazole and 1 mM DTT) was incubated with SNAP-Cell TMR-Star substrate (NEB) (30 μM) in the dark at room temperature for 1 h. Labelled SNAP-PDK1 was isolated by gel filtration using a PD MidiTrap G-25 Sephadex Column (GE). 10 μl labelled TMR-SNAP-PDK1 was diluted in buffer 50 mM Tris-HCl 50 mM pH 7.4 containing 100 mM NaCl and 1 mM DTT (control) or in the same buffer containing 15 μM HYG8 in a final volume of 20 μl. […] The slides were analysed using stochastic optical reconstruction microscopy (STORM) technology. Fluorescence from monomers was differentiated from that from dimers by the intensity of the fluorescence signals. […]
The STORM microscope used was custom-built around an OlympusIX-73 inverted microscope, as described previously ([96]). A 532 nm 1.5 W laser (Laser Quantum Ventus 532) was used for fluorescence excitation of TMR-Star. […] Images were recorded by an EMCCD camera (Andor iXon3 897). […] After calibration, the parameters selected in the STORM’s software were: shape, two color 120X; view, single; horizontal readout rate, 5.0 MHz; speed, 3.3 μs; clock voltage, normal; frame transfer mode, (select); set exposure time, 100 ms, real exposure time, 100 ms; real accumulation time, 102 ms; effective frame rate, 9.38 Hz; pre amplifier gain 5.1; electron multiplier gain, 30; laser power, 5 mW. […]

O=C(O[C@H]1[C@@H](OP(=O)(O)O)[C@H](OP(=O)(O)O)[C@@H](OP(=O)(O)O)[C@H](OP(=O)(O)O)[C@H]1OP(=O)(O)O)c1ccccc1 [HYG8, 2-O-benzoyl-IP5]
effect on proportion of PDK1 dimers: decreased the proportion of PDK1 dimers
